From article PMC8800111 (The Journal of Biological Chemistry, 2021)

Experiments:
[1] = target: proteins of U3A human fibrosarcoma cells (4462 proteins detected) (Homo sapiens, UniProt O00505); format: cell-based; conditions: protein KPNA3; U3A cells
[2] = target: proteins of U3A human fibrosarcoma cells (4462 proteins detected) (Homo sapiens, UniProt P05388); format: cell-based; conditions: protein RPLP0; RPLP0P6; U3A cells
[3] = target: T1, DHFR (Homo sapiens, UniProt P00374); test: Cellular thermal shift assay (CETSA) in U3A cell lysate; format: binding; conditions: 10 μM, 10 min
T1 sequence (P00374 1-187): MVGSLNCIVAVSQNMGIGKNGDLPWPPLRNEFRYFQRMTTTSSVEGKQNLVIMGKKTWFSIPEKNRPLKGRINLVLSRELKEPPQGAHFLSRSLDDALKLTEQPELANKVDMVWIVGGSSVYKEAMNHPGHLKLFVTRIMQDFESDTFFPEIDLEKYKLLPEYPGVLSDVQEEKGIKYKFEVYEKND
Protocol: (§1) Protein abundance was measured by immunoblotting and band quantification.
(§2) U3A cells were cultured in DMEM (Thermo Fisher Scientific) with 10% heat-inactivated fetal bovine serum and 1% penicillin/streptomycin. […] Cells were washed once with PBS, harvested using trypsin, and centrifuged at 300g. The pellet was resuspended in Tris-buffered saline (TBS) supplemented with cOmplete protease inhibitor cocktail (Roche), aliquoted (50 μl; 8 × 10^5 cells per temperature) into PCR strip tubes, and heated at the indicated temperature in a Veriti Thermal Cycler (Applied Biosystems) for 3 min, then cooled for another 3 min at room temperature. Cells were then lysed by freeze–thawing three times with 3-min incubations in an ethanol/dry ice bath and a water bath at 37 °C. The lysates were then centrifuged at 17,000g for 20 min at 4 °C to remove cellular debris and pelleted protein aggregates. Supernatants (40 μl) were transferred to new tubes and prepared for immunoblotting. […] Briefly, U3A cells in exponential growth rate were collected, resuspended in TBS supplemented with cOmplete protease inhibitor cocktail (Roche), lysed by freeze–thaw cycle, and centrifuged at 17,000g for 20 min at 4 °C. […] Band intensities were quantified using Fiji ([42]) and then plotted and fitted in GraphPad Prism (GraphPad Software, Inc) to obtain apparent Tagg values.

[4] = target: T1, DHFR; test: Cellular thermal shift assay (CETSA) in intact U3A cells; format: cell-based; conditions: 10 μM, 10 min
Protocol: as §1, §2

[5] = target: CHCHD2 (Homo sapiens, UniProt Q9Y6H1); test: as above; format: cell-based; conditions: 10 μM, 10 min
Protocol: as §1
U3A cells were cultured in DMEM (Thermo Fisher Scientific) with 10% heat-inactivated fetal bovine serum and 1% penicillin/streptomycin. […] Cells were washed once with PBS, harvested using trypsin, and centrifuged at 300g. The pellet was resuspended in Tris-buffered saline (TBS) supplemented with cOmplete protease inhibitor cocktail (Roche), aliquoted (50 μl; 8 × 10^5 cells per temperature) into PCR strip tubes, and heated at the indicated temperature in a Veriti Thermal Cycler (Applied Biosystems) for 3 min, then cooled for another 3 min at room temperature. Cells were then lysed by freeze–thawing three times with 3-min incubations in an ethanol/dry ice bath and a water bath at 37 °C. The lysates were then centrifuged at 17,000g for 20 min at 4 °C to remove cellular debris and pelleted protein aggregates. Supernatants (40 μl) were transferred to new tubes and prepared for immunoblotting. […] DHFR stabilization was evaluated with superoxide dismutase 1 as a thermostable loading control. Band intensities were quantified using Fiji ([42]) and then plotted and fitted in GraphPad Prism (GraphPad Software, Inc) to obtain apparent Tagg values.
(A) DHFR protein levels in Fig 2C were quantified and plotted. […] Soluble protein levels were analyzed by immunoblotting with the indicated antibodies. […]

[6] = tested on: U3A cells; test: Cellular ATP levels (CellTiter-Glo); format: cell-based, human; conditions: 10 μM, 6 h
[7] = Apoptosis assay (FITC annexin V / propidium iodide flow cytometry); format: cell-based; conditions: human; U3A cells, 6 h time point, same treatment as ATP assay; read-out: viable cells
[8] = tested on: STAT3 target genes in U3A cells; test: STAT3 target gene expression by qRT-PCR in U3A cells; format: cell-based, human; conditions: 10 μM 1 h, OSM 90 min
[9] = tested on: STAT3 target genes in SKBR3 cells; test: STAT3 target gene expression by qRT-PCR in SKBR3 cells; format: cell-based, human; conditions: 10 μM 1 h, OSM 60 min
Protocol: Cells were stimulated with 10 ng/ml interleukin 6 (Peprotech) or 10 ng/ml OSM (Peprotech). Cells were stimulated for 15 min for whole cell lysate immunoblotting, 60 to 90 min for qRT–PCR, and 5 to 6 h for luciferase reporter assays.
Total RNA was extracted from cells using the RNeasy Mini Kit (Qiagen). Complementary DNA was generated using the TaqMan Reverse Transcription Reagents (Invitrogen). qPCR was performed in triplicate or quadruplicate using the Power SYBR Green PCR Master Mix (Invitrogen) on a 7500 Real-Time PCR System (Applied Biosystems) or a QuantStudio 6 Flex Real-Time PCR System (Applied Biosystems). Specificity of amplification was confirmed by melting curve analysis. Cycle threshold (CT) values for target genes were normalized to the endogenous reference gene GAPDH. Primer sequences (Table S3) were designed from the University of California Santa Cruz genome browser reference mRNA sequences using Primer3 ([43]).

[10] = tested on: nuclear pSTAT3 and total STAT3 in U3A cells; test: Nuclear and cytoplasmic fractionation immunoblotting in OSM-stimulated U3A cells; format: cell-based, human; conditions: 10 μM 1 h, 10 ng/ml OSM 30 min
Protocol: It should be noted that, given the variability inherent in chromatin immunoprecipitation (IP), few of the individual changes in binding reached statistical significance. However, the trend in each of the five genes was identical.
B, MDA-MB-468 cells were treated with 5 μM PYR for 24 h. Nuclear and cytoplasmic fractions were analyzed by immunoblotting with the indicated antibodies. PARP and tubulin were used as nuclear and cytoplasmic markers, respectively. C, U3A human fibrosarcoma cells stably expressing STAT3-dependent luciferase were pretreated with 10 μM PYR for 1 h and stimulated with 10 ng/ml oncostatin M (OSM) for 30 min. Nuclear and cytoplasmic fractions were analyzed by immunoblotting with the indicated antibodies. […] D, SKBR3 cells were treated with 10 μM PYR for 1 h, stimulated with 10 ng/ml leukemia inhibitory factor (LIF) for 30 min, and analyzed by chromatin immunoprecipitation with antibodies to STAT3 and RNA pol II (pol II). Binding at the indicated target genes was assessed by quantitative RT–PCR. Data are expressed as percent of input. […]
Cells were lysed on ice for 15 min in either radioimmunoprecipitation assay lysis buffer (Boston BioProducts) or EBC lysis buffer (50 mM Tris [pH 8.0], 250 mM NaCl, and 0.5% Nonidet-P40 [NP-40]) containing phosphatase and complete protease inhibitors (Roche). […] Immunoblots were developed, and band intensity was quantified using Fiji ([42]).

[11] = tested on: STAT3 DNA binding in SKBR3 cells; test: Chromatin immunoprecipitation, STAT3 binding at target genes; format: cell-based, human; conditions: 10 μM 1 h, 10 ng/ml LIF 30 min
Protocol: (§3) Nuclei were centrifuged at 660g for 5 min at 4 °C and lysed in 300 μl of nuclear lysis buffer (50 mM Tris [pH 8.1], 10 mM EDTA, 1% SDS, and phosphatase and protease inhibitors). […] Lysate was then added to 60 μl of Protein A/G PLUS agarose beads (catalog no.: 2003; Santa Cruz Biotechnology) and rotated for 4 to 6 h at 4 °C. […] Beads were resuspended in 150 μl elution buffer (100 mM sodium bicarbonate and 1% SDS) and incubated overnight at 65 °C. DNA was purified using a PCR Purification Kit (Qiagen) according to the manufacturer's protocol. qPCR was performed using the indicated primers (Table S3). Results were normalized to input.

[12] = tested on: RNA pol II recruitment in SKBR3 cells; test: Chromatin immunoprecipitation, RNA polymerase II binding at target genes; format: cell-based, human; conditions: 10 μM 1 h, 10 ng/ml LIF 30 min
Protocol: as §3

[13] = target: T1, DHFR
[14] = target: T1, DHFR; conditions: DHFR enzymatic IC50
[15] = tested on: STAT5; conditions: original high-throughput screen; cited from earlier work
[16] = tested on: STAT3-dependent genes; set-up: method as in PMID 33373063; conditions: chronic lymphocytic leukemia; cited from earlier work
[17] = set-up: method as in printed; conditions: patients taking this drug for months at a time; ref not given; cited from earlier work
[18] = physchem; conditions: DHFR enzymatic assay medium with 5% DMSO, 37 °C, aqueous with cosolvent or surfactant or cyclodextrin, kinetic from dmso stock
[19] = 11 μM DHFR, 130 μM ligand, 200 μM NADPH, […] DMSO, 25 °C

Chain of proteins of U3A human fibrosarcoma cells (4462 proteins detected) (Homo sapiens, UniProt O00505) (O00505 whole entry): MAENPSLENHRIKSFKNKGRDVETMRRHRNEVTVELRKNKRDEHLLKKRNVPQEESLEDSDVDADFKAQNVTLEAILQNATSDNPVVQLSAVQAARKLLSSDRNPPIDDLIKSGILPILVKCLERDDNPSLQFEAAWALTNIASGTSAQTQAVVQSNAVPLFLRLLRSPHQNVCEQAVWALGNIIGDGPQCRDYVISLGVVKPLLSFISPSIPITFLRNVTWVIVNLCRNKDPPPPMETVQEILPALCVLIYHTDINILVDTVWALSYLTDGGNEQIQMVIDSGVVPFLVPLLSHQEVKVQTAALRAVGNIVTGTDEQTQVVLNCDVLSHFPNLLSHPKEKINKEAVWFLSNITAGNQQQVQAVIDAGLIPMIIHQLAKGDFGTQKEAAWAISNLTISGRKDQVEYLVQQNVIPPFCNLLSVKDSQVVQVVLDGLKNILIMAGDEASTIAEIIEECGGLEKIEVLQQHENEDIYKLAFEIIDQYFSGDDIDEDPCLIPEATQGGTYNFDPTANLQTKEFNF
Chain of CHCHD2 (Q9Y6H1 whole entry): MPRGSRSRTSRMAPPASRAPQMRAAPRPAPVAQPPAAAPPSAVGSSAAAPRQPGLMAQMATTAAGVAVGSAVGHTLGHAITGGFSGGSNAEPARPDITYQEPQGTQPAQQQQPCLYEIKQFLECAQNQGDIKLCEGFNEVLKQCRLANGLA

CCc1nc(N)nc(N)c1-c1ccc(Cl)cc1 [pyrimethamine]
Log2 (PYR/DMSO) [1]: 0.18
Log2 (PYR/DMSO) [2]: 0.23
DHFR aggregation temperature (Tagg) in the presence of drug [3]: ~53.2 °C
DHFR aggregation temperature (Tagg) in the presence of drug [4]: 50.6 °C
CHCHD2 stabilization by CETSA [5]: failed to validate
reduction of cellular ATP levels [6]: about 75%
viability at 6 h, 10 μM [7]: ~100%
OSM-stimulated BCL6 expression [8]: significantly reduced
OSM-stimulated BCL6 expression [9]: significantly reduced
OSM-stimulated nuclear pSTAT3 or total STAT3 [10]: no effect
LIF-stimulated STAT3 binding at BCL6 [11]: minimal reduction
pol II recruitment at BCL6 [12]: complete loss
ΔH [13, 19]: -11.6 ± 0.7 kcal/mol
ΔS [13, 19]: −2.8 ± 1 cal/mol/°C
stoichiometry ([13]; one-site model): 1.0 ± 0.2 sites
difference in potency between pyrimethamine and methotrexate [14]: ~500 fold
transcriptional activity of STAT5 [15]: no effect
inhibition of expression of STAT3-dependent genes in patients [16]: on-target activity
concentration routinely achieved in the serum of patients [17]: 10 µM
solubility [18]: > 1000 µM
